Laboratory results reported in patent publication US20230203060A1 (GENFLEET THERAPEUTICS (SHANGHAI) INC., priority 2020, published 2023).

Legend:
[1] = test system: KRAS G12C mutant NCI-H358 cells; experiment: Cell proliferation inhibition experiment, 3D spheroid, CellTiter-Glo, NCI-H358; type: cell-based, human; conditions: Homo sapiens, NCI-H358, 120 h, NCI-H358 (KRAS G12C mutant) 3D spheroid, 5 days with compound, CellTiter-Glo; read-out: H358 IC50
How it was run: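 Cells seeded in 2% FBS medium in spheroid plates (800 H358 or 400 A549 per well), grown overnight to form 3D spheroids, then exposed to 3.16-fold compound dilutions (0.1% DMSO) for 5 days. CellTiter-Glo luminescence gave inhibition vs DMSO and medium blanks; IC50 by four-parameter fit.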

[2] = test system: KRAS G12C mutant MIA PaCa-2 cells; experiment: Cell proliferation inhibition experiment, 3D spheroid, CellTiter-Glo, MIA PaCa-2; type: cell-based, human; conditions: Homo sapiens, MIA PaCa-2, 120 h, 3D cell model in 384-well spheroid plate, 5 days, CellTiter-Glo; read-out: MIA-PaCa2 IC50
How it was run: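 200 MIA PaCa-2 cells/well grown overnight as 3D spheroids, then exposed to 3.16-fold compound dilutions (0.1% DMSO final) for 5 days. Viability read by CellTiter-Glo luminescence; inhibition calculated against DMSO and medium-only controls, and IC50 fitted by four-parameter model.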

| SMILES | IC50 [1] | IC50 [2] |
| --- | --- | --- |
| C=CC(=O)N1CCN2C(=O)c3c(N4CC[C@@H](OC)C4(C)C)nc(-c4c(O)cccc4F)c(F)c3OC[C@H]2C1 (single isomer, unassigned) [Z327-1] | 4 nM | 7.1 nM |
| C=CC(=O)N1CCN2C(=O)c3c(N4CCN(C)C(=O)[C@@H]4C)nc(-c4c(O)cccc4F)c(Cl)c3OC[C@H]2C1 [Z311-1, (6aR)-8-actyloyl-4-chloro-1-((S)-2,4-dimethyl-3-oxopiperazin-1-yl)-3-(2-fluoro-6-hydroxyphenyl)-6,6a,7,8,9,10-hexahydro-12H-pyrazino[2,1-c]pyrido[3,4-f][1,4]oxazepin-12-one] | 10 nM | 12 nM |
| C=CC(=O)N1CCN2C(=O)c3c(N4C[C@@H](O)CC4(C)C)nc(-c4c(F)ccc(F)c4O)c(F)c3OC[C@H]2C1 (single isomer, unassigned) [Z449-1] | 7 nM | 22 nM |
| C=CC(=O)N1CCN2C(=O)c3c(N4C[C@@H](O)CC4(C)C)nc(-c4c(O)ccc(Cl)c4F)c(F)c3OC[C@H]2C1 (single isomer, unassigned) [Z340-1] | 5.2 nM | 11 nM |
| C=CC(=O)N1CCN2C(=O)c3c(N4CCN(CCOC)C(C)(C)C4)nc(-c4c(O)cccc4F)c(Cl)c3OC[C@H]2C1 [Z321, (6aR)-8-acryloyl-4-chloro-3-(2-fluoro-6-hydroxyphenyl)-1-(4-(2-methoxyethyl)-3,3-dimethylpiperazin-1-yl)-6,6a,7,8,9,10-hexahydro-12H-pyrazino[2,1-c]pyrido[3,4-f][1,4]oxazepin-12-one] | 4.5 nM | 7 nM |

These reach a lower IC50 [1]. Values come first.

| IC50 [1] | IC50 [2] | SMILES |
| --- | --- | --- |
| 2.8 nM | 6.2 nM | C=CC(=O)N1CCN2C(=O)c3c(N4C[C@@](C)(O)CC4(C)C)nc(-c4c(O)cccc4F)c(F)c3OC[C@H]2C1 (single isomer, unassigned) [Z256b-1] |
| 2.5 nM | 3.7 nM | C=CC(=O)N1CCN2C(=O)c3c(N4C[C@@H](CO)CC4(C)C)nc(-c4c(O)cccc4F)c(Cl)c3OC[C@H]2C1 (single isomer, unassigned) [Z240-1] |
| 2.4 nM | 8 nM | C=CC(=O)N1CCN2C(=O)c3c(N4C[C@H](N(C)CCOC)CC4(C)C)nc(-c4c(O)cccc4F)c(Cl)c3OC[C@H]2C1 (single isomer, unassigned) [Z296-2] |
| 2.4 nM | 3.6 nM | C=CC(=O)N1CCN2C(=O)c3c(N4C[C@@H](OC)C[C@@H]4C)nc(-c4c(O)cccc4F)c(Cl)c3OC[C@H]2C1 [Z260a, (6aR)-8-acryloyl-4-chloro-3-(2-fluoro-6-hydroxyphenyl)-1-((2S,4S)-4-methoxy-2-methylpyrrolidin-1-yl)-6,6a,7,8,9,10-hexahydro-12H-pyrazino[2,1-c]pyrido[3,4-f][1,4]oxazepin-12-one] |
| 2.2 nM | 1.7 nM | C=CC(=O)N1CCN2C(=O)c3c(N4CCN(C)C[C@@H]4C)nc(-c4nc(N)cc(C)c4C(F)(F)F)c(Cl)c3OC[C@H]2C1 [Z328-1, (R)-8-acryloyl-3-(6-amino-4-methyl-3-(trifluoromethyl)pyridin-2-yl)-4-chloro-1-((S)-2,4-dimethylpiperazin-1-yl)-6,6a,7,8,9,10-hexahydro-12H-pyrazino[2,1-c]pyrido[3,4-f][1,4]oxazepin-12-one] |
| 2.2 nM | 4.2 nM | C=CC(=O)N1CCN2C(=O)c3c(N4CC(C)(O)CC4(C)C)nc(-c4c(O)cccc4F)c(Cl)c3OC[C@H]2C1 (stereo partly drawn) [Z243, (6aR)-8-acryloyl-4-chloro-3-(2-fluoro-6-hydroxyphenyl)-1-(4-hydroxy-2,2,4-trimethylpyrrolidin-1-yl)-6,6a,7,8,9,10-hexahydro-12H-pyrazino[2,1-c]pyrido[3,4-f][1,4]oxazepin-12-one] |
| 1.4 nM | 3.8 nM | C=CC(=O)N1CCN2C(=O)c3c(N4C[C@H](OC)CC4(C)C)nc(-c4c(O)cccc4F)c(F)c3OC[C@H]2C1 (single isomer, unassigned) [Z256a-2] |
| 1 nM | 3 nM | C=CC(=O)N1CCN2C(=O)c3c(N4C[C@H](N5CCOCC5)CC4(C)C)nc(-c4c(O)cccc4F)c(Cl)c3OC[C@H]2C1 (single isomer, unassigned) [Z297-1] |
